Laboratory results from patent publication US6914064B2, “1,4-Disubstituted piperazine derivatives useful as uro-selective α1-adrenoceptor blockers” (Ranbaxy Laboratories Limited, priority 2000, dated 2005).

Key:
[1] = tested on: phenylephrine response on mean arterial pressure (MAP) and intraurethral pressure (IUP); experiment: In vivo uroselectivity study in conscious beagle dogs; details: for Area Under Curve IUP / Area Under Curve MAP: percent change of phenylephrine (16 μg/kg i.v.) response, 0.5-24 hours
Source text: In order to assess the uroselectivity in vivo, the effects of these compounds were studied on mean arterial pressure (MAP) and intraurethral pressure (IUP) in conscious beagle dogs as per the method of Brune et. al. (Pharmacol 1996, 53:356-368). Briefly, male dogs were instrumented for chronic continuous measurement of arterial blood pressure by implanting a telemetry transmitter (TL11M2-D70-PCT, Data Sci. International, St. Paul, Minn. USA) into the femoral artery, two weeks prior to the study. During the recovery period, the animal was acclimatized to stay in the sling restraint. On the day of testing, overnight fasted animal was placed in the sling restraint. A Swan-Ganz. Balloon tipped catheter was introduced into the urethra at the level of prostate and the balloon was inflated (Brune. et. al. 1996). After recording the base line readings, effect of 16 μg/kg, phenylephrine (i.v.) on MAP and IUP was recorded. The response of phenylephrine to MAP and IUP were recorded at 0.5, 1, 2, 3, 4, 6, 9 and 24 hours after the oral administration of vehicle or the test drug. The changes in MAP was recorded on line using Dataquest Software (Data Sci. International. St. Paul, Minn. USA) and IUP was recorded on a Grass Polygraph (Model 7, Grass Instruments, USA). The change in phenylephrine response on MAP and IUP administration after the test drug administration was calculated as percent change of that of control values. Area under curve was calculated and the ratio of the values for MAP and IUP was used for calculating the uroselectivity (Table III)

α1B adrenoceptor = target: T1, α1B adrenoceptor (Rattus norvegicus, UniProt P15823); experiment: Receptor binding assay, displacement of [3H]prazosin, rat liver membranes; details: [3H]prazosin displacement, rat liver membranes; read-out: α1B (Rat liver) Ki
T1 construct: from tissue; host or cells: rat liver membranes
T1 sequence (P15823 1-515): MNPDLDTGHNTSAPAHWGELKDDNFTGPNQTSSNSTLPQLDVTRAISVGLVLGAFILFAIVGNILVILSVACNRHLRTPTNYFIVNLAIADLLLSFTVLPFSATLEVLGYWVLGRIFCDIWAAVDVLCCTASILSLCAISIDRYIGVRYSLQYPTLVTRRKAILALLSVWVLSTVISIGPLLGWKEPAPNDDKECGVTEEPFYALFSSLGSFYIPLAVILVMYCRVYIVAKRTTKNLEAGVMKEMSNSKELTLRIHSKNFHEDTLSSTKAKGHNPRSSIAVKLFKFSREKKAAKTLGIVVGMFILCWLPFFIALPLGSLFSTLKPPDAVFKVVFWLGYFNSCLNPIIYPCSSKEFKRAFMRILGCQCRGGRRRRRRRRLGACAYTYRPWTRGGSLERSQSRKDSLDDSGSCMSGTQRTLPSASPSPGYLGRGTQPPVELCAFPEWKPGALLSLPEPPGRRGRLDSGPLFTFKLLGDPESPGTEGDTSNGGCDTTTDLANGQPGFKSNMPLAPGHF
Method in brief: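 Rat liver membranes (150-250 μg protein) incubated with [3H]prazosin in 50 mM Tris HCl, 5 mM EDTA, pH 7.4, 1 h at 24-25° C; nonspecific binding with 300 nM prazosin. Bound radioactivity counted after filtration; IC50 by nonlinear fit, Ki via Cheng-Prusoff.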

Row | SMILES | Uroselectivity Ratio IUP/MAP ([1]; 3 μg/kg p.o.) | Area Under Curve IUP ([1]; 3 μg/kg p.o.) | Area Under Curve MAP ([1]; 3 μg/kg p.o.) | Ki (α1B adrenoceptor) | Uroselectivity Ratio IUP/MAP ([1]; 100 μg/kg p.o.) | Area Under Curve IUP ([1]; 100 μg/kg p.o.) | Area Under Curve MAP ([1]; 100 μg/kg p.o.) | Uroselectivity Ratio IUP/MAP ([1]; 10 μg/kg p.o.) | Area Under Curve IUP ([1]; 10 μg/kg p.o.) | Area Under Curve MAP ([1]; 10 μg/kg p.o.)
1 | CC(C)Oc1ccccc1N1CCN(CCCN2C(=O)C3CC=CCC3C2=O)CC1.Cl (stereo not shown) [Compound 23, 2-[3-{4-(2-Isopropoxyphenyl)piperazin-1-yl}propyl]-3a,4,7,7a-tetrahydro-1H-isoindole-1,3(2H)-dione hydrochloride] | 4 | 790 | 197 | 0.028 µM | – | – | – | – | – | –
2 | CCCOc1ccccc1N1CCN(CCCN2C(=O)C3CC=CCC3C2=O)CC1.Cl (stereo not shown) [Compound 24, 2-[3-{4-(2-Propoxyphenyl)piperazin-1-yl}propyl]-3a,4,7,7a-tetrahydro-1H-isoindole-1,3(2H)-dione hydrochloride] | 7.6 | 522 | 68 | 0.028 µM | – | – | – | – | – | –
3 | COc1ccccc1N1CCN(CCCN2C(=O)C3CC=CCC3C2=O)CC1.Cl (stereo not shown) [Compound 01, 2-[3-{4-(2-Methoxyphenyl)piperazin-1-yl}propyl]-3a,4,7,7a-tetrahydro-1H-isoindole-1,3(2H)-dione hydrochloride] | – | – | – | 0.073 µM | 5.54 | 514 | 93 | – | – | –
4 | CCOc1ccccc1N1CCN(CCCN2C(=O)C3CC=CCC3C2=O)CC1.Cl (stereo not shown) [Compound 11, 2-[3-{4-(2-Ethoxyphenyl)piperazin-1-yl}propyl]-3a,4,7,7a-tetrahydro-1H-isoindole-1,3(2H)-dione hydrochloride] | – | – | – | 0.019 µM | – | – | – | 66 | 661 | 10
